Measured values published in patent publication US20030224942A1, “Alkylamino-1,3,5-triazines, processes for their preparation and their use as herbicides and plant growth regulators” (priority 2001, published 2003).

What was measured:
[1] = tested on: Chenopodium spp., Papaver spp., Polygonum spp., Veronica spp. or Viola spp.; assay: Post-emergence effect on weeds (greenhouse pot test, visual scoring); format: in vivo, monocotyledonous and dicotyledonous weeds; details: treated at three-leaf stage; visual scoring after about 3 to 4 weeks; application rate of 0.5 kg and less of active substance per hectare
[2] = tested on: Cyperus spp., Echinochloa spp., Digitaria spp., Sagitaria spp. and Scirpus spp.; assay: Action on harmful plants in rice (paddy rice conditions, visual scoring); format: in vivo, typical rice weeds (gramineous and broad-leaved); details: applied into the dammed water, visual scoring about three weeks after application
Summary of the method: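 Under paddy conditions with 2-3 cm dammed water, transplanted and sown rice plus weeds were treated at three-leaf stage (E. crus-galli at 1.5 leaves). Pots stayed in greenhouse under optimum growth conditions for the test period, with visual assessment of damage.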

SMILES | herbicidal activity post-emergence against harmful plants [1] | herbicidal activity against harmful plants which are typical for rice crops [2]
CC#Cc1cccc(C(C)Nc2nc(C)nc(N)n2)c1 (stereo not drawn) [Product P2.1582] | very good herbicidal activity | very good herbicidal activity
CC#Cc1ccc(C(Nc2nc(N)nc(C(C)F)n2)C2CC2)cc1 (stereo not drawn) [Product P24.1583] | very good herbicidal activity | very good herbicidal activity
CC#Cc1cccc(CNc2nc(C)nc(N)n2)c1 [Product P1.1582] | very good herbicidal activity | very good herbicidal activity
CC(C)c1nc(N)nc(NC(c2ccc(C(F)=C(F)F)cc2)C2CC2)n1 (stereo not drawn) [Product P14.1568] | very good herbicidal activity | very good herbicidal activity
CC(Nc1nc(N)nc(C(C)(C)F)n1)c1cccc(C2CC2)c1 (stereo not drawn) [Product P17.1603] | very good herbicidal activity | very good herbicidal activity
CC#Cc1c(F)cc(CNc2nc(N)nc(C(C)(C)F)n2)cc1F [Product P16.428] | very good herbicidal activity | very good herbicidal activity
CCc1nc(N)nc(NC(C)c2ccc(F)c(C(F)=C(F)F)c2)n1 (stereo not drawn) [Product P7.5] | very good herbicidal activity | very good herbicidal activity
CCC(F)c1nc(N)nc(NCc2ccc(F)c(C(F)=C(F)F)c2)n1 (stereo not drawn) [Product P26.5] | very good herbicidal activity | very good herbicidal activity
C#Cc1ccc(C(C)Nc2nc(C)nc(N)n2)cc1F (stereo not drawn) [Product P2.1620] | very good herbicidal activity | very good herbicidal activity
CC#Cc1ccc(C(Nc2nc(N)nc(C(C)(C)F)n2)C2CC2)cc1 (stereo not drawn) [Product P19.1583] | very good herbicidal activity | very good herbicidal activity
CC#Cc1cc(C(Nc2nc(C)nc(N)n2)C2CC2)ccc1F (stereo not drawn) [Product P4.384] | very good herbicidal activity | very good herbicidal activity
CC(Nc1nc(N)nc(C(C)(C)F)n1)c1cc(F)c(C(F)=C(F)F)c(F)c1 (stereo not drawn) [Product P17.49] | very good herbicidal activity | very good herbicidal activity
